# According to article PMC10374545, “A small molecule inhibitor of PTP1B and PTPN2 enhances T cell anti-tumor immunity” (Nature Communications, 2023):
# “And” between values parts separate entries of the source, which are not always exact repeats. Equal values may be shown once.
# What was measured:
# NK cells [1] = assay: NK cell proliferation (CFSE dilution); type: cell-based, mouse; conditions: IL-15, 96 h; 0.1 or 1 (µM in figure, µg/ml in legend)
# Method: (§1) proliferation in vitro. a-b) NK cells from C57BL/6 male mice (n=3 per group) were expanded […]
# (§2) µg/ml) or vehicle (1% v/v DMSO) in the absence of IL-15. a) NK cells were re-stimulated for 15 min with the indicated amounts of IL-15 and Y694 phosphorylated STAT-5 (p-STAT-5) mean fluorescence intensities (MFIs) determined by flow cytometry. b) Alternatively, NK cells were stained with carboxyfluorescein succinimidyl ester (CFSE, Invitrogen) and then re-stimulated with the indicated amounts of IL-15 for 96 h and NK cell proliferation (CFSE dilution) monitored by flow cytometry. c-d) NK cells from C57BL/6 male mice (n=3 per group) were expanded ex vivo in the presence of IL-15 and then pre-treated with CMP-182 (0.1 or 1 µg/ml) or vehicle in the absence of IL-15. NK cells were re-stimulated with either IL-12 (10 ng/ml) or IL-18 (100 ng/ml) or with α-NK1.1 or α-Ly49H for 4 h. NK cells were maintained in 10 ng/ml IL-15 throughout the 4 h incubation time. Percentages of c) IFN-γ+ and d) CD107A+ NK cells were determined by flow cytometry. In (a-d) results shown are means ± SEM and are representative of at least two independent experiments.
# AT3 mammary tumors = assay: AT3 tumor growth in Lck-Cre;Ptpn2fl/fl mice; type: in vivo, mouse; design: key to Tumour growth: tumour size in mm^2 (two-dimensional caliper measurement); Tumour weights / Tumour weights (mean): unit not given here; conditions: for Tumour size (mean): CMP-182 in LCK-CRE-PTPN2 mice (Group C), in mm2; for Tumour growth: individual mice (Figure 8D)
# Method: (§3) Male or female mice were injected subcutaneously with 5 × 10^5 MC38 tumor cells resuspended in 100 μl D-PBS into the flank. Alternatively, female mice were injected orthotopically with 5 × 10^5 AT3 or AT3-OVA or PTPN2-deleted AT3 or AT3-OVA tumor cells resuspended in 20 μl D-PBS into the fourth mammary fat pad. Tumor sizes were measured in two dimensions (mm^2) using electronic callipers two to three times per week as soon as tumors were palpable (20–25 mm^2).
# OT-I CD8+ T cells = assay: T cell activation assay (CD25, CD69 by flow cytometry); type: cell-based, mouse; conditions: for CD25, group mean (Mean 2) / CD69, group mean (Mean 2): Fig. 2A; for CD25 (MFI), single replicates / CD69 (MFI), single replicates: N4 1 nM, 1 μM, 48 h, Fig. 2A raw data
# Method: The cell surface markers CD8, CD25, and CD69 were analyzed using fluorophore-conjugated antibodies by flow cytometry.
# [2] = Serum anti-nuclear antibodies (ANA) ELISA; type: in vivo, mouse
# Description: CD3ε (BD Biosciences Cat# 553058) and CD28 (BD Biosciences Cat# 557393) antibodies for T cell stimulation and NK1.1 (BD Biosciences Cat# 564143) antibody for NK cell stimulation were purchased from BD Biosciences. Ly49H (clone 3D10, BioLegend Cat# 144702) antibody for NK stimulation was from BioLegend. For analyzing T cell signaling, p-(Y418) SFK (Thermo Fisher Scientific Cat# 14-9034-82) was from Invitrogen and p-(Y694) STAT-5 (D47E7) XP® (Cell Signaling Technology Cat# 4322) was from Cell Signaling. Recombinant human IL-2, recombinant murine IL-7 and recombinant human IL-15 were purchased from the PeproTech, recombinant mouse IL-12 and recombinant human IL-18 were from Australia Biosearch and […] (N4) from Mimotopes. InVivoMAb anti-mouse PD-1 (Bio X Cell Cat# BE0146) and InVivoMAb rat IgG2a isotype control (Bio X Cell Cat# BE0251) were purchased from Bio X Cell. DNase I was from Sigma-Aldrich. Rabbit monoclonal PTP1B (Abcam Cat# ab244207) antibody for flow cytometry was from Abcam and mouse monoclonal PTPN2 6F3 antibody for immunoblotting and flow cytometry was from MédiMabs (Cat# MM-019-P). Mouse anti-actin (Thermo Fisher Scientific Cat# MA5-11866) from Invitrogen and mouse α-tubulin (Sigma-Aldrich Cat# T5168) was from Merck. The mouse anti-nuclear antibodies Ig’s (total IgA+G + M) ELISA Kit was from Alpha Diagnostic Int. and the Transaminase II Kit from Wako Pure Chemicals. FBS was purchased from Thermo Scientific, RPMI 1640, DMEM, MEM, HEPES, non-essential amino acids, penicillin/streptomycin, and sodium-pyruvate were from Invitrogen, collagenase type IV was purchased from Worthington Biochemical and ABBV-CLS-484 was from MedChemExpress (Cat# HY-145923).
# AT3-OVA mammary tumors = assay: AT3-OVA tumor growth in Rag1-/- mice; type: in vivo, mouse; design: key to Tumour growth: tumour size in mm^2 (two-dimensional caliper measurement); Tumour weights: unit not given here; conditions: for Tumour size RAG1, mean: in mm2
# Method: as §3
# NK cells [3] = assay: NK cell activation (IFN-γ+, CD107A+) by cytokines or α-NK1.1/α-Ly49H; type: cell-based, mouse; conditions: cytokines or crosslinking NK1.1, Ly49H
# Method: as §1, §2
# [4] = Lck-Cre;Ptpn2fl/fl (2K) OT-I cells, listed as 2KI
# [5] = wild type OT-I cells + inhibitor, n 6
# [6] = wild type OT-I cells, listed as WTI
smiles,measurement,setting,value
"CC(C)(O)CCOc1ccc2cc(O)c(N3CC(=O)NS3(=O)=O)c(F)c2c1 [Compound 182, 5-(1-Fluoro-3-hydroxy-7-(3-hydroxy-3-methylbutoxy)naphthalen-2-yl)−1,2,5-thiadiazolidin-3-one 1,1-dioxide]",NK cell proliferation,NK cells [1],did not enhance
same,AT3 tumor growth in Lck-Cre;Ptpn2fl/fl mice,"AT3 mammary tumors; 10 mg/kg i.v., beyond PTPN2 deletion in T cells",further suppressed tumor growth
same,eradication of AT3 tumors in Lck-Cre;Ptpn2fl/fl mice,"AT3 mammary tumors; 10 mg/kg i.v., tumors eradicated/total",3/6
same,Tumour weights (mean),"AT3 mammary tumors; AT-3 tumours, CMP-182 in LCK-CRE-PTPN2 mice",7
same,Tumour size (mean),"AT3 mammary tumors; AT-3 tumours, time point 7",19.03
same,Tumour size (mean),"AT3 mammary tumors; AT-3 tumours, time point 10",21.39
same,Tumour size (mean),"AT3 mammary tumors; AT-3 tumours, time point 12",20.59
same,Tumour size (mean),"AT3 mammary tumors; AT-3 tumours, time point 14",19.84
same,Tumour size (mean),"AT3 mammary tumors; AT-3 tumours, time point 16",13.84
same,Tumour size (mean),"AT3 mammary tumors; AT-3 tumours, time point 19",12.75
same,Tumour size (mean),"AT3 mammary tumors; AT-3 tumours, time point 21",13.01
same,Tumour size (mean),"AT3 mammary tumors; AT-3 tumours, time point 23",11.77
same,"Tumour weights, median","AT3 mammary tumors; AT-3 tumours, CMP-182 in LCK-CRE-PTPN2 mice, n=6","7.500, n=6"
same,Tumour growth,"AT3 mammary tumors; AT-3 tumours, LCK-CRE-PTPN2 mice n=6, day 7 post injection, listed as CMP-182",13.566 (2×) and 20.8844 (2×) and 21.6987 (2×) and 6.7144 (2×) and 16.1674 (2×) and 35.1652 (2×)
same,Tumour growth,"AT3 mammary tumors; AT-3 tumours, LCK-CRE-PTPN2 mice n=6, day 10 post injection, listed as CMP-182",12.25 (2×) and 27.03 (2×) and 24 (2×) and 10.5 (2×) and 18.4 (2×) and 36.18 (2×)
same,Tumour growth,"AT3 mammary tumors; AT-3 tumours, LCK-CRE-PTPN2 mice n=6, day 12 post injection, listed as CMP-182",9 (2×) and 29.15 (2×) and 22.5 (2×) and 12.6 (2×) and 15.2 (2×) and 35.1 (2×)
same,Tumour growth,"AT3 mammary tumors; AT-3 tumours, LCK-CRE-PTPN2 mice n=6, day 14 post injection, listed as CMP-182",9 (2×) and 25.92 (2×) and 22.5 (2×) and 13.32 (2×) and 14.35 (2×) and 33.92 (2×)
same,Tumour growth,"AT3 mammary tumors; AT-3 tumours, LCK-CRE-PTPN2 mice n=6, day 16 post injection, listed as CMP-182",0 (4×) and 24.48 (2×) and 22.95 (2×) and 7.5 (2×) and 28.08 (2×)
same,Tumour growth,"AT3 mammary tumors; AT-3 tumours, LCK-CRE-PTPN2 mice n=6, day 19 post injection, listed as CMP-182",0 (4×) and 22.55 (2×) and 22.95 (2×) and 4 (2×) and 27 (2×)
same,Tumour growth,"AT3 mammary tumors; AT-3 tumours, LCK-CRE-PTPN2 mice n=6, day 21 post injection, listed as CMP-182",0 (4×) and 27.56 (2×) and 22.5 (2×) and 4 (2×) and 24 (2×)
same,Tumour growth,"AT3 mammary tumors; AT-3 tumours, LCK-CRE-PTPN2 mice n=6, day 23 post injection, listed as CMP-182",0 (4×) and 25 (2×) and 22.54 (2×) and 1 (2×) and 22.08 (2×)
same,Tumour weights,"AT3 mammary tumors; AT-3 tumours, LCK-CRE-PTPN2 mice n=6, individual mice (Figure 8D), listed as CMP-182",0 and 12 and 10 and 5 and 15
same,"CD25, group mean (Mean 2)","OT-I CD8+ T cells; 2K OT-I cells + inhibitor, n 4",49238
same,"CD69, group mean (Mean 2)","OT-I CD8+ T cells; 2K OT-I cells + inhibitor, n 4",3065
same,"CD25 (MFI), single replicates",OT-I CD8+ T cells; [4],50690 and 58145 and 42341 and 45775
same,"CD69 (MFI), single replicates",OT-I CD8+ T cells; [4],3049 and 3660 and 3360 and 2191
same,"antigen-induced activation of CD8+ T cells (CD25, CD69)","OT-I CD8+ T cells; OT-I cells, SIINFEKL (N4)",enhanced
same,"CD25, group mean (Mean 2)",OT-I CD8+ T cells; [5],43739
same,"CD69, group mean (Mean 2)",OT-I CD8+ T cells; [5],2723
same,"CD25 (MFI), single replicates",OT-I CD8+ T cells; [6],44120 and 42537 and 42315 and 46694 and 45914 and 40851
same,"CD69 (MFI), single replicates",OT-I CD8+ T cells; [6],2509 and 2213 and 3486 and 2750 and 2693 and 2686
same,serum anti-nuclear antibodies (ANA),[2]; 10 mg/kg i.v.,unaltered
same,Serum ANA,"[2]; Figure 10C, individual mice, listed as CMP-182",77.3077 and 275 and 43.4615 and 42.6923 and 47.3077 and 142.692 and 64.2308
same,"ANA Serum, median","[2]; Figure 10C, median, n=8","70.77, n=8"
same,AT3-OVA mammary tumor growth in Rag1-/- mice,"AT3-OVA mammary tumors; 10 mg/kg i.v., mice lack T and B cells",no effect
same,Tumour growth,"AT3-OVA mammary tumors; Figure 6E, RAG1 mice, n=6, individual animals, day 9 post injection, listed as CMP-182",7.7488 and 14.8962 and 11.224 and 3.9597 and 9.447 and 12.6224
same,Tumour growth,"AT3-OVA mammary tumors; Figure 6E, RAG1 mice, n=6, individual animals, day 11 post injection, listed as CMP-182",19.6245 and 35.0523 and 26.8632 and 16.6934 and 15.0024 and 31.8592
same,Tumour growth,"AT3-OVA mammary tumors; Figure 6E, RAG1 mice, n=6, individual animals, day 14 post injection, listed as CMP-182",31.9081 and 32.6823 and 36.7674 and 25.1923 and 36.3137 and 48.8592
same,Tumour growth,"AT3-OVA mammary tumors; Figure 6E, RAG1 mice, n=6, individual animals, day 16 post injection, listed as CMP-182",59.5752 and 89.2808 and 73.4616 and 57.4821 and 68.9011 and 83.2686
same,Tumour growth,"AT3-OVA mammary tumors; Figure 6E, RAG1 mice, n=6, individual animals, day 18 post injection, listed as CMP-182",74.7088 and 110.046 and 88.7004 and 79.0656 and 57.8454 and 92.4255
same,Tumour growth,"AT3-OVA mammary tumors; Figure 6E, RAG1 mice, n=6, individual animals, day 21 post injection, listed as CMP-182",75.82 and 124.872 and 109.74 and 89.0525 and 89.04 and 103.68
same,Tumour growth,"AT3-OVA mammary tumors; Figure 6E, RAG1 mice, n=6, individual animals, day 23 post injection, listed as CMP-182",84.728 and 134.64 (3×) and 89.0525 and 133.35
same,Tumour growth,"AT3-OVA mammary tumors; Figure 6E, RAG1 mice, n=6, individual animals, day 25 post injection, listed as CMP-182",88 and 156.6 and 126.72 and 89.0525 and 186.66 and 168.74
same,Tumour weights,"AT3-OVA mammary tumors; Figure 6E, RAG1 mice, n=6, individual animals, listed as CMP-182",270 and 560 and 890 and 220 and 490 and 330
same,"TUMOR WEIGHTS RAG1, median","AT3-OVA mammary tumors; RAG1 mice, column B (Data Set-B), n=6, Figure 6E","410.0, n=6"
same,"Tumour size RAG1, mean over all time points (column mean)","AT3-OVA mammary tumors; RAG1 mice, n=6, Figure 6E, mean of 8 time points",72.3 mm2
same,"Tumour size RAG1, mean","AT3-OVA mammary tumors; RAG1 mice, n=6, time point 9, Figure 6E",9.983
same,"Tumour size RAG1, mean","AT3-OVA mammary tumors; RAG1 mice, n=6, time point 11, Figure 6E",24.18
same,"Tumour size RAG1, mean","AT3-OVA mammary tumors; RAG1 mice, n=6, time point 14, Figure 6E",35.29
same,"Tumour size RAG1, mean","AT3-OVA mammary tumors; RAG1 mice, n=6, time point 16, Figure 6E",71.99
same,"Tumour size RAG1, mean","AT3-OVA mammary tumors; RAG1 mice, n=6, time point 18, Figure 6E",83.8
same,"Tumour size RAG1, mean","AT3-OVA mammary tumors; RAG1 mice, n=6, time point 21, Figure 6E",98.7
same,"Tumour size RAG1, mean","AT3-OVA mammary tumors; RAG1 mice, n=6, time point 23, Figure 6E",118.5
same,"Tumour size RAG1, mean","AT3-OVA mammary tumors; RAG1 mice, n=6, time point 25, Figure 6E",136
same,NK cell activation (IFNγ or CD107A expressing cells),NK cells [3],nor did it affect
